Test results published in patent US20080213356A1, “Pharmaceutical Composition Containing Hmg-Coa Reductase Inhibitor And Method For The Preparation Thereof” (PHARMATHEN S.A., priority 2005, published 2008).
Structures can show the parent of a compound that is named as a salt.

Experiment: Flowability and compressibility, Carr's Index
Format: physicochemical
Conditions: pure pharmaceutical substance
From the text: However, when Dimethicone was incorporated according to the present invention, a decrease of 40-50% of the Carr Index was observed, which indicates an improvement of the flow properties of Fluvastatin and Atorvastatin and therefore the use of a direct compression for the final formulation.

With `CC(C)c1c(C(=O)Nc2ccccc2)c(-c2ccccc2)c(-c2ccc(F)cc2)n1CC[C@@H](O)C[C@@H](O)CC(=O)O` (relative stereo) [Atorvastatin, [R—(R*,R*)]-2-(4-fluorophenyl)-b,d-dihydroxy-5-(1-methylethyl)-3-phenyl-4 [(phenylamino)carbonyl]-1H-pyrrole-1-heptanoic acid, calcium salt (2:1) trihydrate] the “mean Carr's Index” value was 24-25%.
